From patent publication US11304957B2, “Substituted quinazolines for inhibiting kinase activity” (NeuPharma, Inc., priority 2013, dated 2022)

Legend:
EGFR (ErbB1) T790M L858R = EGFR (ErbB1) T790M L858R (Homo sapiens (Human), UniProt P00533, L858R/T790M); assay: Z'-LYTE kinase inhibition assay, EGFR L858R/T790M; assay type: biochemical; settings: for inhibition at 0.0137 µM: read-out: % inhibition EGFR L858R/T790M (Compound at 0.0137 μM)
Experimental: Inhibitory activities of compounds against BTK, EGFR and EGFR mutants (EGFR L858R, EGFR T790M, EGFR L858R/T790M), FGFR1, FGFR2, JAK2, JAK3 and KDR were measured by Invitrogen using Z'-LYTE® Method as briefly described in the following. Test Compounds are screened in 1% DMSO (final) in the well. For 10 point titrations, 3-fold serial dilutions are conducted from the starting concentration. All ATP Solutions are diluted to a 4× working concentration in Kinase Buffer (50 mM HEPES pH 7.5, 0.01% BRIJ-35, 10 mM MgCl2, 1 mM EGTA). Peptide/Kinase Mixtures are diluted to a 2× working concentration in the appropriate Kinase Buffers as described below. (iv) Peptide/Kinase Mixtures for Measurement of EGFR (ErbB1) T790M L858R: The 2×EGFR (ErbB1) […] mixture is prepared in 50 mM HEPES pH 6.5, 0.01% BRIJ-35, 10 mM MgCl2, 1 mM EGTA, 0.02% NaN3. […] After the 1 hour Kinase Reaction incubation, 5 μL of a 1:64 dilution of Development Reagent B is added. Reaction starts by 30-second shaking of mixture consisting of 2.5 μL 4× test compound, 5 μL 2× kinase reaction mixture and 2.5 μL 4×ATP Solution on Bar-coded Corning, low volume NBS, black 384-well plate (Corning Cat. #3676). Then the mixture is incubated for 60-minute at room temperature for the kinase reaction, followed by addition of 5 μL of a 1:1024 dilution of development reagent A and 30-second plate shake. The mixture is then incubated for another 60-minute at room temperature for development reaction. Finally fluorescence is read by plate reader. To determine IC50 of a compound against EGFR, EGFR mutant and other kinases, a series of concentrations of the compound were tested for the inhibition.

H1975 tumor xenograft = assay: Inhibition of tumor growth in H1975 xenograft model; assay type: in vivo, BALB/c female nude mice; settings: Table 7, 60 mg/kg, oral, QD × 14; for Tumor Volume Pre-treatment: baseline
Experimental: H1975 cells were implanted in BALB/c female nude mice and grown as tumor xenografts. When tumors achieved 120-200 mm^3, mice were assigned into treatment and control groups using randomized block design based upon their tumor volumes. Each group contained 6 tumor-bearing mice. Tumors were measured twice weekly in two dimensions using a caliper, and the tumor volume was calculated from two-dimensional measurements using the equation V=0.5×a×b^2 where a and b are the long and short diameters of the tumor, respectively. Relative tumor volume (RTV) was defined as TVt/TVi, the ratio of the volume on a given day (TVt) and the volume at the start of treatment (TVi). Relative tumor growth rate (T/C) was defined as RTVT/RTVC, the ratio of relative tumor volume of treatment group (RTVT) and relative tumor volume of control group (RTVC) on a given day. Inhibition of tumor growth in a H1975 tumor xenograft model by some compounds is shown below in Table 6 and Table 7.

EGFR (ErbB1) = EGFR (ErbB1) (Homo sapiens (Human), UniProt P00533); assay: Z'-LYTE kinase inhibition assay, EGFR (ErbB1); assay type: biochemical
Experimental: Inhibitory activities of compounds against BTK, EGFR and EGFR mutants (EGFR L858R, EGFR T790M, EGFR L858R/T790M), FGFR1, FGFR2, JAK2, JAK3 and KDR were measured by Invitrogen using Z'-LYTE® Method as briefly described in the following. Test Compounds are screened in 1% DMSO (final) in the well. For 10 point titrations, 3-fold serial dilutions are conducted from the starting concentration. All ATP Solutions are diluted to a 4× working concentration in Kinase Buffer (50 mM HEPES pH 7.5, 0.01% BRIJ-35, 10 mM MgCl2, 1 mM EGTA). Peptide/Kinase Mixtures are diluted to a 2× working concentration in the appropriate Kinase Buffers as described below. (i) Peptide/Kinase Mixtures for Measurement of EGFR (ErbB1): The 2×EGFR (ErbB1)/[…] mixture is prepared in 50 mM HEPES pH 7.5, 0.01% BRIJ-35, 10 mM MgCl2, 4 mM MnCl2, 1 mM EGTA, 2 mM DTT. The final 10 μL Kinase Reaction consists of 1.1-5.25 ng EGFR (ErbB1) and 2 μM […] in 50 mM HEPES pH 7.5, 0.01% BRIJ-35, 10 mM MgCl2, 2 mM MnCl2, 1 mM EGTA, 1 mM DTT. After the 1 hour Kinase Reaction incubation, 5 μL of a 1:64 dilution of Development Reagent B is added. Reaction starts by 30-second shaking of mixture consisting of 2.5 μL 4× test compound, 5 μL 2× kinase reaction mixture and 2.5 μL 4×ATP Solution on Bar-coded Corning, low volume NBS, black 384-well plate (Corning Cat. #3676). […] Finally fluorescence is read by plate reader. […]

H1975 cells = assay: Inhibition of cancer cell growth, MTT assay, H1975; settings: read-out: IC50 H1975, 72 h, EGFR L858R/T790M
Experimental: Inhibition of cell growth by compounds was measured using MTT assay (Mosmann, T., Journal of Immunological Methods, 1983, 65, 55-63). Tumor cell lines were purchased from ATCC (American Type Culture Collection, Manassas, Va.). All cell lines were maintained in RPMI 1640 (Hyclone) supplemented with 10% fetal bovine serum (FBS, Hyclone), glutamine (2 mM, Hyclone), and antibiotics (penicillin 100 U/mL and streptomycin 50 μg/mL) at 37° C. in a humidified atmosphere of 5% CO2 in air. Taxol (as a positive control, Sigma) and compounds were dissolved in DMSO (Sigma), and the final concentration of DMSO in the medium was 1%. Tumor cells were plated in 96-well plates at densities of about 4000 cells/well of a 96-well plate and allowed to adhere/grow for 24 h. They were then treated with various concentrations of drug for 72 h. […] The number of cells remaining after 72 h was compared to the number of viable cells at the time of compound addition by measuring the absorbance at 570 nm, allowing for the calculation of growth inhibition.
All concentrations of compounds were tested in triplicate and controls were averaged over 4 wells. IC50 was calculated by plotting the concentration of compound vs the percentage of inhibition in treated wells using GraphPad Prism 5. […]

EGFR (ErbB1) T790M L858R, sequence (P00533 25-1210 T790M/L858R): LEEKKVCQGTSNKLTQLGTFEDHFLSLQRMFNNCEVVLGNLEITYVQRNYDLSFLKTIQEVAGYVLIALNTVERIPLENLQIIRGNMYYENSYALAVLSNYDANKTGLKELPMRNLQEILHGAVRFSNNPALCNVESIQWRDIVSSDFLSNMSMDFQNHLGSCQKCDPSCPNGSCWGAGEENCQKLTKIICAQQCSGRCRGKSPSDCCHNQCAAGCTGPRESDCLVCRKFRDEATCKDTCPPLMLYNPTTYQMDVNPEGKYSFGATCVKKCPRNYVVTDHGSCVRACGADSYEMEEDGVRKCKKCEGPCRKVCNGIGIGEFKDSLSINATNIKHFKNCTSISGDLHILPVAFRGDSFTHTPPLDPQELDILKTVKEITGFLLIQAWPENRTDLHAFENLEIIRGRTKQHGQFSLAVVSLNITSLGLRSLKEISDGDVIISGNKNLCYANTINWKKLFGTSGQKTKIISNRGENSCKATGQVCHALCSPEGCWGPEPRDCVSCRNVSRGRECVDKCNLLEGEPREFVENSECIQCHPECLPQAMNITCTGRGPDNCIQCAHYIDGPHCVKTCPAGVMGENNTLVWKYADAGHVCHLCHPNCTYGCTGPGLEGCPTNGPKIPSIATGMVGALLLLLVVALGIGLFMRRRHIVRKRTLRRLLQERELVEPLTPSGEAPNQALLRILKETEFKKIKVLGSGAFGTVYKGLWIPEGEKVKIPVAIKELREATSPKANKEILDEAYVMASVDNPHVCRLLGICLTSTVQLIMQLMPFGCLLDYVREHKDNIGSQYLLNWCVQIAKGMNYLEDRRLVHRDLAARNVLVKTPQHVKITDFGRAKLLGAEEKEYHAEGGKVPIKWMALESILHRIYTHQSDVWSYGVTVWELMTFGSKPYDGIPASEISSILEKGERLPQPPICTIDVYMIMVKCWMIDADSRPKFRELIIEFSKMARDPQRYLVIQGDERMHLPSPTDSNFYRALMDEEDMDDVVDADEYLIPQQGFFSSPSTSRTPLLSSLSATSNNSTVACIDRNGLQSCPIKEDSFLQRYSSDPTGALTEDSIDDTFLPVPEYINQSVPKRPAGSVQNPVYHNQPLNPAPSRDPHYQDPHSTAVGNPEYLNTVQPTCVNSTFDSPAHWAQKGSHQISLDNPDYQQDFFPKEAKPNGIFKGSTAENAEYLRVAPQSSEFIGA
EGFR (ErbB1), sequence (P00533 25-1210): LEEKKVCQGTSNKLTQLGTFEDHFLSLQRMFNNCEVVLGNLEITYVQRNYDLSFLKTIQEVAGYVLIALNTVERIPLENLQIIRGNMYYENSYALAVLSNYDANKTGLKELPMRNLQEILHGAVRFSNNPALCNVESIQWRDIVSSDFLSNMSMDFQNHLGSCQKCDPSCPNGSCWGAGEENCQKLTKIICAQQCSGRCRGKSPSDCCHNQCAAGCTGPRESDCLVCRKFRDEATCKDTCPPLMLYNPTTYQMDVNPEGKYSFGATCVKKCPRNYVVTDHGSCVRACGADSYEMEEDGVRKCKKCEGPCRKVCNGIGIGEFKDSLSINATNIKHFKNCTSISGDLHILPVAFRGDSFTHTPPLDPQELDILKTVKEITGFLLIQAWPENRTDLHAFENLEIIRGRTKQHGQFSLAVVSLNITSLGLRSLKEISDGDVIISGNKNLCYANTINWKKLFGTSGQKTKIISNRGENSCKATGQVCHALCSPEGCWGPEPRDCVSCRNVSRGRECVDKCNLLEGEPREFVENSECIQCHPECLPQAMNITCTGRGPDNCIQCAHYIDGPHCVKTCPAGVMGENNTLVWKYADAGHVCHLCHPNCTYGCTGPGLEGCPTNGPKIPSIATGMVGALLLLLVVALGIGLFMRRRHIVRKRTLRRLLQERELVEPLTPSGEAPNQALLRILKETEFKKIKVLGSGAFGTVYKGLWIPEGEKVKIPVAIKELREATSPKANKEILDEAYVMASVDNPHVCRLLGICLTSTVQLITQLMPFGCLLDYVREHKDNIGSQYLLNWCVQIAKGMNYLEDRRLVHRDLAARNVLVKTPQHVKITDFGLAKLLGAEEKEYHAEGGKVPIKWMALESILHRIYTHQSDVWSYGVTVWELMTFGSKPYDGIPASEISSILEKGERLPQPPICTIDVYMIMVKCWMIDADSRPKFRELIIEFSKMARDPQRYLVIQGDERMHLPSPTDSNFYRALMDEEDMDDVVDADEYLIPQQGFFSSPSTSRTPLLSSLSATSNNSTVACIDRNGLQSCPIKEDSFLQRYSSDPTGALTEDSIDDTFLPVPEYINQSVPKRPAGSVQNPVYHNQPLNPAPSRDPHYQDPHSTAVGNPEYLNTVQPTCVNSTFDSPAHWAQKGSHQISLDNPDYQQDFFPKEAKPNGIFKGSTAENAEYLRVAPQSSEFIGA

Row | SMILES | inhibition at 0.0137 µM (EGFR (ErbB1) T790M L858R) | Tumor Volume Post-treatment (H1975 tumor xenograft) | Tumor Volume Pre-treatment (H1975 tumor xenograft) | % inhibition EGFR (Compound at 0.041 μM) (EGFR (ErbB1)) | % inhibition EGFR L858R/T790M (Compound at 0.0137 μM) (EGFR (ErbB1) T790M L858R) | IC50 (H1975 cells)
1 | C=CC(=O)Nc1cccc(-c2cccc3cnc(Nc4ccc(N5CCN(CCO)CC5)cc4F)nc23)c1 [Example C147, N-(3-(2-((2-fluoro-4-(4-(2-hydroxyethyl)piperazin-1-yl)phenyl)amino)quinazolin-8-yl)phenyl)acrylamide] | > 50% | 898 mm^3 | 240 mm^3 | – | – | –
2 | C=CC(=O)Nc1cccc(-c2cccc3cnc(Nc4ccc(N5CCN(CCO)CC5)c(F)c4F)nc23)c1 [Example C151, N-(3-(2-((2,3-difluoro-4-(4-(2-hydroxyethyl)piperazin-1-yl)phenyl)amino)quinazolin-8-yl)phenyl)acrylamide] | > 50% | 462 mm^3 | 229 mm^3 | – | – | –
3 | C=CC(=O)Nc1cccc(-c2cccc3cnc(Nc4ccc(N5CCN(CC(N)=O)CC5)cc4F)nc23)c1 [Example C154] | – | – | – | + (less than 50% inhibition) | + (less than 50% inhibition) | 100 to 500 nM
4 | C=CC(=O)Nc1cccc(-c2cccc3cnc(Nc4ccc(N5CCN(C)CC5)c(F)c4F)nc23)c1 [Example C156, N-(3-(2-((2,3-difluoro-4-(4-methylpiperazin-1-yl)phenyl)amino)quinazolin-8-yl)phenyl)acrylamide] | – | 594 mm^3 | 232 mm^3 | – | – | –
5 | C=CC(=O)Nc1cccc(-c2cccc3cnc(Nc4ccc(N5CCN(CC(N)=O)CC5)c(F)c4)nc23)c1 [Example C164] | – | – | – | + (less than 50% inhibition) | + (less than 50% inhibition) | 100 to 500 nM
